The results in this text go back to ChEMBL document CHEMBL4118215, “Design and synthesis of functionalized piperazin-1yl-(E)-stilbenes as inhibitors of 17α-hydroxylase-C17,20-lyase (Cyp17)” (Bioorg Med Chem Lett, 2018).

A word on the IC50: it is the point on the concentration scale where inhibition reaches its midpoint. One may read the half-life as how long it takes for the measured level to halve. Usually Tmax stands for the time at which the peak concentration occurs. The Cmax is the peak of the concentration-time curve. What is called AUC is concentration integrated over time. Low values mean less exposure, high ones more exposure. One may read the Vd as the apparent volume that relates the amount in the body to the concentration in plasma or blood. In general, AUC(0-inf) refers to the area under the concentration-time curve extrapolated to infinity. Usually clearance stands for the volume of plasma or blood freed of the substance per unit of time.

Data set [1] has as its target T1, Steroid 17-alpha-hydroxylase/17,20 lyase (Homo sapiens, UniProt P05093).
T1 sequence (P05093 whole entry): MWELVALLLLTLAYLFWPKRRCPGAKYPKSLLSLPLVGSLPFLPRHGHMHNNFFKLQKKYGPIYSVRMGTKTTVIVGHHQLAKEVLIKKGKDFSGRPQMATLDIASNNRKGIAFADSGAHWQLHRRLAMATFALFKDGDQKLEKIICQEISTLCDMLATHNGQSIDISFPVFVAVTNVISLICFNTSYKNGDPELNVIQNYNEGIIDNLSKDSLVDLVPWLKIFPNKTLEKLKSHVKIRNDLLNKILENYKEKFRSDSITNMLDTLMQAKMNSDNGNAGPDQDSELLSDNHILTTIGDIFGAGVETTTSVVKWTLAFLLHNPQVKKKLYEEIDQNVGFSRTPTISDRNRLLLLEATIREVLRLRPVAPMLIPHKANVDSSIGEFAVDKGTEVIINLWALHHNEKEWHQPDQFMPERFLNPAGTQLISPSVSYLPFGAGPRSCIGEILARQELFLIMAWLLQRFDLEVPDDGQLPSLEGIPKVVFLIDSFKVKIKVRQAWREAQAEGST
In words: Inhibition of recombinant CYP17 (unknown origin) expressed in human AD293 cells using [21-3H]17alpha-hydroxypregnenolone as substrate preincubated for 60 mins followed by substrate addition measured after 4 hrs Topcount method. The format is cell-based.

A short description of data set [2]: Half-life in guinea pig at 1 mg/kg, iv by LC-MS/MS analysis. It counts as ADME, organism-based, Cavia porcellus. To be noted: in vivo.
The species named for data set [3] is Homo sapiens. In words: Selectivity index, ratio of IC50 for human CYP3A4 to IC50 for recombinant CYP17 (unknown origin).
A short description of data set [4]: Half-life in guinea pig liver microsomes in presence of NADPH regenerating system by LC/MS/MS method. The format is ADME, Cavia porcellus, microsome.
Data set [5] is described as follows: Tmax in guinea pig at 1 mg/kg, iv by LC-MS/MS analysis. The format is ADME, organism-based, Cavia porcellus. To be noted: in vivo.
Data set [6] relates to Cavia porcellus. In words: Cmax in guinea pig at 10 mg/kg, po by LC-MS/MS analysis. It counts as ADME, organism-based. The arrangement: dose 10 mg/kg, route oral. To be noted: in vivo.
For data set [7], the system named is Cavia porcellus. In words: Half-life in guinea pig at 10 mg/kg, po by LC-MS/MS analysis. It counts as ADME, organism-based. To be noted: in vivo.
Data set [8] in a line: Cmax in guinea pig at 1 mg/kg, iv by LC-MS/MS analysis. It counts as ADME, organism-based, Cavia porcellus. The arrangement: dose 1 mg/kg, route intravenous. The following applies: in vivo.
The species named for data set [9] is Homo sapiens. In words: Selectivity index, ratio of IC50 for CYP19 (unknown origin) to IC50 for recombinant CYP17 (unknown origin).
Data set [10] relates to Cavia porcellus. In words: AUC (0 to infinity) in guinea pig at 10 mg/kg, po by LC-MS/MS analysis. The following applies: in vivo. The arrangement: dose 10 mg/kg, time infinity, route oral. It counts as ADME, organism-based.
The nature of data set [11]: Volume of distribution in guinea pig at 1 mg/kg, iv by LC-MS/MS analysis. It counts as ADME, organism-based, Cavia porcellus. To be noted: in vivo.
The nature of data set [12]: AUC (0 to infinity) in guinea pig at 1 mg/kg, iv by LC-MS/MS analysis. The arrangement: dose 1 mg/kg, route intravenous, time infinity. To be noted: in vivo. The format is ADME, organism-based, Cavia porcellus.
A short description of data set [13]: Clearance in guinea pig at 1 mg/kg, iv by LC-MS/MS analysis. It counts as ADME, organism-based, Cavia porcellus. To be noted: in vivo.
Data set [14] relates to Cavia porcellus. In words: Oral bioavailability in guinea pig at 10 mg/kg by LC-MS/MS analysis. It counts as ADME, organism-based. The following applies: in vivo.

In the case of `O=S(=O)(C(F)F)N1CCN(c2ccc(/C=C/c3cc(Cl)cc(-c4ccncc4)c3)cc2)CC1`, in data set [1], the IC50 is 5 nM.
On the same count and under the same terms, the value for `N#CCS(=O)(=O)N1CCN(c2ccc(/C=C/c3cc(Cl)cc(-c4ccncc4)c3)cc2)CC1` was 6 nM.
Take `CCS(=O)(=O)N1CCN(c2ccc(/C=C/c3cc(F)cc(-c4ccncc4)c3)cc2)CC1`: the half-life in data set [2] is 5.7 h; in [4], 1 h. Moreover, the values for the Ratio IC50 in the data set listed under Homo sapiens [3] and in the data set listed under Homo sapiens [9] were 49 and 2000, respectively. The Tmax in data set [5] amounted to 0.15 h. Further, the results for the Cmax (with Cavia porcellus [6]; in [8]) were 540 ng/mL and 852 ng/mL, respectively. This compound yielded a t1/2 in the data set with Cavia porcellus [7] of 4.8 h. This compound came in with an AUC with Cavia porcellus [10] of 4190 ng·h/mL. Moreover, in data set [11], the Vd worked out at 4.05 L/kg. The AUC(0-inf) in data set [12] worked out at 2000 ng·h/mL. This compound had a clearance in [13] of 8.79 mL/min/kg.
On to `O=S(=O)(C1CC1)N1CCN(c2ccc(/C=C/c3cc(F)cc(-c4ccncc4)c3)cc2)CC1`, for which, in data set [1], the IC50 came to 1 nM.
With `O=S(=O)(C1CC1)N1CCN(c2ccc(/C=C/c3cc(F)cc(Cn4ccnc4)c3)cc2)CC1`, the IC50 in [1] is 34 nM.
Same read-out and setting: under `N=C(N)N1CCN(c2ccc(/C=C/c3cc(Cl)cc(-c4ccncc4)c3)cc2)CC1` stands 17 nM.
For `CC(=O)N1CCN(c2ccc(OCC3COC(Cn4ccnc4)(c4ccc(Cl)cc4Cl)O3)cc2)CC1` (stereo unspecified) [KETOCONAZOLE], the half-life in data set [4] amounted to 0.667 h.
Consider `O=S(=O)(N1CCN(c2ccc(/C=C/c3cc(F)cc(-c4ccncc4)c3)cc2)CC1)C(F)(F)F`, for which the half-life in data set [2] is 5 h; in data set [4], 1 h. The Ratio IC50 is 1560 in the data set filed under Homo sapiens [3] and 167 in the data set filed under Homo sapiens [9]. Further, the Tmax in data set [5] came out at 0.2 h. The figures for the Cmax (in the data set with Cavia porcellus [6]; in data set [8]) were 271 ng/mL and 203 ng/mL, respectively. Further, in the data set on Cavia porcellus [7], the t1/2 was determined as 5.25 h. Besides, in the data set on Cavia porcellus [10], the AUC was determined as 2452 ng·h/mL. Further, in data set [11], the Vd was 9.1 L/kg. Besides, the AUC(0-inf) in [12] was 815 ng·h/mL. Also, the IC50 in [1] came to 2 nM. Also, the clearance in data set [13] came out at 20.9 mL/min/kg.
In the case of `O=S(=O)(C(F)F)N1CCN(c2ccc(/C=C/c3cc(F)cc(Cn4ccnc4)c3)cc2)CC1`, the IC50 in data set [1] was found to be 5 nM.
Take `O=S(=O)(C(F)F)N1CCN(c2ccc(/C=C/c3cc(F)cc(-c4ccncc4)c3)cc2)CC1`: the IC50 in [1] is 5 nM.
As for `CC(=O)N1CCN(c2ccc(/C=C/c3cc(F)cc(-c4ccncc4)c3)cc2)CC1`, the half-life in [2] was 6 h; in [4], 1 h. Further, the figures for the Ratio IC50 in the data set filed under Homo sapiens [3] and in the data set listed under Homo sapiens [9] were 151 and 2170, respectively. The Tmax in data set [5] is 0.1 h. Moreover, the values for the Cmax (in the data set with Cavia porcellus [6]; in [8]) were 1018 ng/mL and 132 ng/mL, respectively. This compound displayed a t1/2 in the data set on Cavia porcellus [7] of 6 h. The same compound showed an AUC in the data set with Cavia porcellus [10] of 14890 ng·h/mL. Besides, the Vd in data set [11] turned out to be 14.8 L/kg. In data set [12], this compound gave an AUC(0-inf) of 586 ng·h/mL. In addition, the F in the data set on Cavia porcellus [14] worked out at 184.2%. The clearance in [13] was found to be 28.5 mL/min/kg.
